Reference: US12077503B2, “Substituted cyclic amides and their use as herbicides” (FMC CORPORATION, priority 2015, dated 2024)

Columns and labels:
Type in all cases: in vivo
rice (Oryra sativa) = assay: Test B flooded paddy test; conditions: Oryza sativa, 360 h, Flood, 250 g ai/ha; visually evaluated after 13 to 15 d; read-out: Plant response rating, Rice (0 to 100 scale where 0 is no effect and 100 is complete control)
Procedure, shortened: (§1)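 Greenhouse paddy pots with 2-leaf stage plants received compound by direct addition to floodwater 3 cm deep, kept at that level. Scored visually at 13–15 d versus controls (0 no effect; 100 complete control).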

[1] = test system: ducksalad (Heteranthera limosa); assay: Test B flooded paddy test; conditions: Heteranthera limosa, 360 h, Flood, 250 g ai/ha; visually evaluated after 13 to 15 d; read-out: Plant response rating, Ducksalad (0 to 100 scale where 0 is no effect and 100 is complete control)
Procedure, shortened: as §1

[2] = test system: barnyardgrass (Echinochloa crus-galli); assay: Test B flooded paddy test; conditions: Echinochloa crus-galli, 360 h, Flood, 250 g ai/ha; visually evaluated after 13 to 15 d; read-out: Plant response rating, Barnyardgrass (0 to 100 scale where 0 is no effect and 100 is complete control)
Procedure, shortened: as §1

[3] = test system: sedge, umbrella (small-flower umbrella sedge, Cyperus difformis); assay: Test B flooded paddy test; conditions: Cyperus difformis, 360 h, Flood, 250 g ai/ha; visually evaluated after 13 to 15 d; read-out: Plant response rating, Sedge, Umbrella (0 to 100 scale where 0 is no effect and 100 is complete control)
Procedure, shortened: as §1

[4] = test system: wheat (Triticum aestivum); assay: Test A postemergence; conditions: Triticum aestivum, post-emergence, 240 h, Postemergence; for plant injury at 125 g/ha: 125 g ai/ha, visual rating about 10 d after treatment, read-out: Wheat plant response rating (0 to 100 scale); for plant injury at 500 g/ha: 500 g ai/ha, visual injury, 0 to 100 scale (0 no effect, 100 complete control), approx. 10 d, read-out: Plant response rating, Wheat
Procedure, shortened: (§2)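 Seeds sprayed preemergence with a directed soil spray, or plants at 2 to 10 cm height and one- to two-leaf stage sprayed postemergence, with test chemicals in a non-phytotoxic solvent mixture containing surfactant, in loam soil–sand blend. Injury rated visually against untreated controls after about 10 d in greenhouse, 0 (no effect) to 100 (complete control).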

[5] = test system: blackgrass (Alopecurus myosuroides); assay: Test A postemergence; conditions: Alopecurus myosuroides, post-emergence, 240 h, Postemergence; for pest or weed control at 125 g/ha: 125 g ai/ha, visual rating about 10 d after treatment, read-out: Blackgrass plant response rating (0 to 100 scale); for pest or weed control at 500 g/ha: 500 g ai/ha, visual injury, 0 to 100 scale (0 no effect, 100 complete control), approx. 10 d, read-out: Plant response rating, Blackgrass
Procedure, shortened: as §2

[6] = test system: ragweed (common ragweed, Ambrosia elatior); assay: Test A postemergence; conditions: Ambrosia artemisiifolia, post-emergence, 240 h, Postemergence; for pest or weed control at 125 g/ha: 125 g ai/ha, visual rating about 10 d after treatment, read-out: Ragweed plant response rating (0 to 100 scale); for pest or weed control at 500 g/ha: 500 g ai/ha, visual injury, 0 to 100 scale (0 no effect, 100 complete control), approx. 10 d, read-out: Plant response rating, Ragweed
Procedure, shortened: as §2

[7] = test system: ryegrass, Italian (Italian ryegrass, Lolium multiflorum); assay: Test A postemergence; conditions: Lolium multiflorum, post-emergence, 240 h, Postemergence; for pest or weed control at 125 g/ha: 125 g ai/ha, visual rating about 10 d after treatment, read-out: Ryegrass, Italian plant response rating (0 to 100 scale); for pest or weed control at 500 g/ha: 500 g ai/ha, visual injury, 0 to 100 scale (0 no effect, 100 complete control), approx. 10 d, read-out: Plant response rating, Ryegrass, Italian
Procedure, shortened: as §2

Kochia (Kochia scoparia) [8] = assay: Test A postemergence; conditions: Bassia scoparia, post-emergence, 240 h, Postemergence; for pest or weed control at 125 g/ha: 125 g ai/ha, visual rating about 10 d after treatment, read-out: Kochia plant response rating (0 to 100 scale); for pest or weed control at 500 g/ha: 500 g ai/ha, visual injury, 0 to 100 scale (0 no effect, 100 complete control), approx. 10 d, read-out: Plant response rating, Kochia
Procedure, shortened: as §2

[9] = test system: giant foxtail (Setaria faberii); assay: Test A preemergence; conditions: Setaria faberi, pre-emergence, 240 h, 0 to 100 scale (0 no effect, 100 complete control), read-out: Plant response rating, Foxtail, Giant; for pest or weed control at 500 g/ha: 500 g ai/ha, preemergence; for pest or weed control at 125 g/ha: Preemergence, 125 g ai/ha
Procedure, shortened: as §2

[10] = test system: barnyardgrass (Echinochloa crus-galli); assay: Test A preemergence; conditions: Echinochloa crus-galli, pre-emergence, 240 h, 0 to 100 scale (0 no effect, 100 complete control), read-out: Plant response rating, Barnyardgrass; for pest or weed control at 500 g/ha: 500 g ai/ha, preemergence; for pest or weed control at 125 g/ha: Preemergence, 125 g ai/ha
Procedure, shortened: as §2

[11] = test system: ragweed (common ragweed, Ambrosia elatior); assay: Test A preemergence; conditions: Ambrosia artemisiifolia, pre-emergence, 240 h, 0 to 100 scale (0 no effect, 100 complete control), read-out: Plant response rating, Ragweed; for pest or weed control at 500 g/ha: 500 g ai/ha, preemergence; for pest or weed control at 125 g/ha: Preemergence, 125 g ai/ha
Procedure, shortened: as §2

[12] = test system: ryegrass, Italian (Italian ryegrass, Lolium multiflorum); assay: Test A preemergence; conditions: Lolium multiflorum, pre-emergence, 240 h, 0 to 100 scale (0 no effect, 100 complete control), read-out: Plant response rating, Ryegrass, Italian; for pest or weed control at 500 g/ha: 500 g ai/ha, preemergence; for pest or weed control at 125 g/ha: Preemergence, 125 g ai/ha
Procedure, shortened: as §2

[13] = test system: pigweed (Amaranthus retroflexus); assay: Test A preemergence; conditions: Amaranthus retroflexus, pre-emergence, 240 h, 0 to 100 scale (0 no effect, 100 complete control), read-out: Plant response rating, Pigweed; for pest or weed control at 500 g/ha: 500 g ai/ha, preemergence; for pest or weed control at 125 g/ha: Preemergence, 125 g ai/ha
Kochia (Kochia scoparia) [14] = assay: Test A preemergence; conditions: Bassia scoparia, pre-emergence, 240 h, 0 to 100 scale (0 no effect, 100 complete control), read-out: Plant response rating, Kochia; for pest or weed control at 500 g/ha: 500 g ai/ha, preemergence; for pest or weed control at 125 g/ha: Preemergence, 125 g ai/ha
Procedure, shortened: as §2

Row | SMILES | pest or weed control at 250 g/ha (rice (Oryra sativa)) [%] | pest or weed control at 250 g/ha [1] [%] | pest or weed control at 250 g/ha [2] [%] | pest or weed control at 250 g/ha [3] [%] | plant injury at 125 g/ha [4] [%] | plant injury at 500 g/ha [4] [%] | pest or weed control at 125 g/ha [5] [%] | pest or weed control at 500 g/ha [5] [%] | pest or weed control at 125 g/ha [6] [%] | pest or weed control at 500 g/ha [6] [%] | pest or weed control at 125 g/ha [7] [%] | pest or weed control at 500 g/ha [7] [%] | pest or weed control at 125 g/ha (Kochia (Kochia scoparia) [8]) [%] | pest or weed control at 500 g/ha (Kochia (Kochia scoparia) [8]) [%] | pest or weed control at 500 g/ha [9] [%] | pest or weed control at 125 g/ha [9] [%] | pest or weed control at 500 g/ha [10] [%] | pest or weed control at 125 g/ha [10] [%] | pest or weed control at 500 g/ha [11] [%] | pest or weed control at 125 g/ha [11] [%] | other results
1 | O=C1NC[C@H](c2cncs2)[C@H]1C(=O)Nc1cccc(F)c1F [Compound 1336] | 0 | 40 | 0 | 0 | 0 | 0 | 0 | 0 | 0 | 0 | 0 | 0 | 0 | 0 | 0 | 0 | 0 | 0 | 0 | 0 | pest or weed control at 500 g/ha [12]: 0%; pest or weed control at 125 g/ha [12]: 0%; pest or weed control at 500 g/ha [13]: 0%; pest or weed control at 125 g/ha [13]: 0%; pest or weed control at 500 g/ha (Kochia (Kochia scoparia) [14]): 0%; pest or weed control at 125 g/ha (Kochia (Kochia scoparia) [14]): 0%
2 | CN1C[C@H](c2ccc(C(F)(F)F)nc2)[C@@H](C(=O)Nc2ccc(F)c(F)c2F)C1=O [Compound 1373] | 0 | 100 | 85 | 0 | 50 | 60 | 50 | 60 | 60 | 70 | 30 | 50 | 80 | 80 | 100 | 100 | 100 | 90 | 100 | 100 | pest or weed control at 500 g/ha [12]: 90%; pest or weed control at 125 g/ha [12]: 60%; pest or weed control at 500 g/ha [13]: 100%; pest or weed control at 125 g/ha [13]: 90%; pest or weed control at 500 g/ha (Kochia (Kochia scoparia) [14]): 100%; pest or weed control at 125 g/ha (Kochia (Kochia scoparia) [14]): 100%
3 | N#Cc1cc([C@H]2CNC(=O)[C@]2(O)C(=O)Nc2cccc(F)c2F)ccc1F [Compound 1374] | 20 | 0 | 0 | 0 | 0 | 0 | 0 | 0 | 0 | 0 | 0 | 0 | 0 | 0 | 0 | 0 | 0 | 0 | 0 | 0 | pest or weed control at 500 g/ha [12]: 0%; pest or weed control at 125 g/ha [12]: 0%; pest or weed control at 500 g/ha [13]: 0%; pest or weed control at 125 g/ha [13]: 0%; pest or weed control at 500 g/ha (Kochia (Kochia scoparia) [14]): 0%; pest or weed control at 125 g/ha (Kochia (Kochia scoparia) [14]): 0%
4 | CN1C[C@H](c2ccc(C(F)(F)F)cc2)[C@@H](C(=O)Nc2ccccc2C#N)C1=O [Compound 1379] | 0 | 100 | 55 | 0 | 30 | 50 | 20 | 30 | 30 | 60 | 30 | 30 | 30 | 60 | 100 | 100 | 100 | 100 | 90 | 70 | pest or weed control at 500 g/ha [12]: 50%; pest or weed control at 125 g/ha [12]: 20%; pest or weed control at 500 g/ha [13]: 90%; pest or weed control at 125 g/ha [13]: 80%; pest or weed control at 500 g/ha (Kochia (Kochia scoparia) [14]): 90%; pest or weed control at 125 g/ha (Kochia (Kochia scoparia) [14]): 90%
